Measurements: patent US8808715B1, “Methods and compositions for modulating keratinocyte function” (Georgia Regents Research Institute, Inc, priority 2004, dated 2014)

Key:
primary keratinocytes = test: [3H]Glycerol uptake; format: cell-based, mouse; settings: 24 hours
Protocol: Confluent primary keratinocytes were incubated for 30, 60, 90, 120, 300 or 600 seconds with SFKM containing 20 mM HEPES (for additional pH buffering), 1 μCi/mL [^3H]glycerol and 0.1% DMSO (control) or 100 nM PMA. Reactions were terminated by washing three times with ice-cold phosphate-buffered saline lacking divalent cations. The cells were subsequently solubilized in 0.3 M NaOH and aliquots of this extract subjected to liquid scintillation counting. Counts obtained from duplicate samples at each time point were averaged and graphed, and a linear equation was determined for each condition. Correlation coefficients obtained were typically 0.99 or greater (mean correlation coefficient for control was 0.992±0.002 and for PMA, 0.994±0.001). Slopes obtained from multiple experiments were averaged and analyzed statistically for significant differences between conditions.
The linearity of glycerol uptake determined above allowed measurement of uptake at a single time point to determine the effects of other treatments on this process. Thus, confluent keratinocytes were preincubated for 30 minutes with 0.1% DMSO (control) or 100 nM PMA prior to measuring [^3H]glycerol uptake as above but at 5 minutes only. Similarly, near-confluent primary keratinocytes were incubated for 24 hours with SFKM containing various calcium concentrations prior to measurement of radiolabeled glycerol uptake for 5 minutes.
Near-confluent keratinocyte cultures were incubated for 24 hours in SFKM (25 μM calcium) or SFKM containing 125 μM calcium (125 μM Ca^2+-SFKM) and the glycerol uptake assay performed as previously described in Zheng & Bollag (2003). Briefly, cells were incubated with SFKM containing 20 mM HEPES (for additional pH buffering) and 1 μCi/mL [^3H] glycerol for 5 minutes, since it has previously been shown that this time point is in the linear range of [^3H]glycerol uptake (Zheng & Bollag (2003). Reactions were terminated by rapidly washing three times with ice-cold phosphate-buffered saline lacking divalent cations (PBS-). Cells were then solubilized in 0.3 M NaOH and [^3H]glycerol uptake quantified by liquid scintillation spectroscopy.

keratinocytes = test: Release of radiolabel from [14C]glycerol-labeled lipids by bacterial PLD (headgroup position); format: cell-based, mouse; settings: 125 μM calcium pretreatment 24 hours, means±SEM
Protocol: Keratinocytes pretreated for 24 hours with control (25 μM calcium) or 125 μM calcium-containing medium were exposed to 0.4-0.5 μCi/mL [^14C]glycerol for an additional 30 minutes. Lipids were extracted into chloroform/methanol as described above. Dried lipid extracts were then solubilized in phospho lipase buffer (100 mM Tris, pH 7.4, 6 mM MgCl2+0.1% Triton-X100) by extensive vortexing and a short incubation at 37° C. and approximately half of each extract was transferred into a clean tube. Distilled water (untreated) or 1 IU/mL (final concentration) of Streptomyces chromofuscus PLD (Sigma, St. Louis, Mo.) diluted in distilled water (PLD-treated) was then added to each of the lipid extract samples, which were incubated at 37° C. for 60 minutes. Released headgroups were then separated from phospholipids by extraction into the aqueous layer, essentially according to the method of Folch. […] A portion of the upper aqueous layer was then collected and quantified by liquid scintillation spectrometry. PLD-released radioactivity in the aqueous phase was calculated as the amount released in the PLD-treated sample minus the amount detected in the corresponding untreated sample. […] This lipid extract was then separated by thin-layer chromatography and PG and phosphatidic acid in the samples quantified as above.

[Ca+2] [calcium]
glycerol uptake relative to control (primary keratinocytes; 500 μM calcium pretreatment): approximately equivalent to the control value | glycerol uptake relative to control (primary keratinocytes; 1 mM calcium pretreatment): slight but not significant inhibition | increase in glycerol uptake relative to the 25 μM calcium control (primary keratinocytes; pre-exposure to 125 μM calcium): 56% | increase in glycerol uptake relative to the 25 μM calcium control (primary keratinocytes; pre-exposure to 250 μM calcium): 41% | radiolabel released into aqueous fraction by bacterial PLD from lipid extracts (keratinocytes; p<0.001): 4.2±0.4 fold over the control level | radioactivity released by bacterial PLD from isolated PG (keratinocytes; p<0.01): 3.3±0.5 fold over the control level
